These are literature values, as cited in patent US20030087306A1, “Methods for identifying novel multimeric agents that modulate receptors” (priority 1998, published 2003).

Targets include 5-HT1B binding site (Rattus norvegicus, UniProt P28564); 5-HT2 binding site (Homo sapiens, UniProt P28223); 5-HT1E binding site (Homo sapiens, UniProt P28566).
Data set [1] concerns the target 5-HT1D receptor. To be noted: for potency (pD2 range): rabbit saphenous vein rings.
For the next data set, the target named is T1, 5-HT1F receptors (Homo sapiens, UniProt P30939).
T1 construct: expressed in transfected cells; host or cells: NIH-3T3 cells
T1 sequence (P30939 1-366): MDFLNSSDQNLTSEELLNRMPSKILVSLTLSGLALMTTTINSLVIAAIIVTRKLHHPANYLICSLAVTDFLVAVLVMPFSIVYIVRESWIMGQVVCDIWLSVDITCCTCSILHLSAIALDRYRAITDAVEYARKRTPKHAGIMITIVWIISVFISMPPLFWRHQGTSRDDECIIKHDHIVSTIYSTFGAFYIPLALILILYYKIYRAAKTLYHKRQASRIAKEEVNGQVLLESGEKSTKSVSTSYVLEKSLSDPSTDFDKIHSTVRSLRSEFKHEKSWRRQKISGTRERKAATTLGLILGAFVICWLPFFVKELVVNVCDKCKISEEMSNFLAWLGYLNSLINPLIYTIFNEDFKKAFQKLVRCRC

The target of a further data set is β2-adrenergic receptor (Homo sapiens, UniProt P07550). The note with it: for duration of action / onset of action (in words): human, in vivo.
Chain of β2-adrenergic receptor (P07550 whole entry): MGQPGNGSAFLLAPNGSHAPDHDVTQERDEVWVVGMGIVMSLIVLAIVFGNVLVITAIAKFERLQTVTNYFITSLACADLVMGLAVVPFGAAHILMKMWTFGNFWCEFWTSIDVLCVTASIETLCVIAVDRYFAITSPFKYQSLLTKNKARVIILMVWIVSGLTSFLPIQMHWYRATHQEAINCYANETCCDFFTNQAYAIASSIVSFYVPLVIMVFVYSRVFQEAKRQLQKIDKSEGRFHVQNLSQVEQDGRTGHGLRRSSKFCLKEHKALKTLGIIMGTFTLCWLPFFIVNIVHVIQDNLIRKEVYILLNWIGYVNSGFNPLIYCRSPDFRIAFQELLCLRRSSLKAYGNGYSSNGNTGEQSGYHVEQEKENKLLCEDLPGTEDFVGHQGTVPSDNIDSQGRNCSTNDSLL
The subject of data set [2] is cholinergic receptors on bronchial smooth muscle.
The next data set concerns the target T2, 5-HT1A binding site (Homo sapiens, UniProt P08908).
T2 sequence (P08908 1-422): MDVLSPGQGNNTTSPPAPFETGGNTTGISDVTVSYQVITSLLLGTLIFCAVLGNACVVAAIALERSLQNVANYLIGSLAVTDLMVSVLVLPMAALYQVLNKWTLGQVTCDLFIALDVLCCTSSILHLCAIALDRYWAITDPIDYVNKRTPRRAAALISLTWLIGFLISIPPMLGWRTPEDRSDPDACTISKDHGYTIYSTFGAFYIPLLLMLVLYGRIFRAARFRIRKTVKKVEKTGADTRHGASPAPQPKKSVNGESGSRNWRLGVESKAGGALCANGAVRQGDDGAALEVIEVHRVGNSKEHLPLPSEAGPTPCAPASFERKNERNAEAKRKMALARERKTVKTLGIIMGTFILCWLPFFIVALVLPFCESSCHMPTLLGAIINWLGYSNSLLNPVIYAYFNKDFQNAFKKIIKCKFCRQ

Another data set addresses T3, 5-HT1C binding site (Homo sapiens, UniProt P28335).
T3 sequence (P28335 33-458): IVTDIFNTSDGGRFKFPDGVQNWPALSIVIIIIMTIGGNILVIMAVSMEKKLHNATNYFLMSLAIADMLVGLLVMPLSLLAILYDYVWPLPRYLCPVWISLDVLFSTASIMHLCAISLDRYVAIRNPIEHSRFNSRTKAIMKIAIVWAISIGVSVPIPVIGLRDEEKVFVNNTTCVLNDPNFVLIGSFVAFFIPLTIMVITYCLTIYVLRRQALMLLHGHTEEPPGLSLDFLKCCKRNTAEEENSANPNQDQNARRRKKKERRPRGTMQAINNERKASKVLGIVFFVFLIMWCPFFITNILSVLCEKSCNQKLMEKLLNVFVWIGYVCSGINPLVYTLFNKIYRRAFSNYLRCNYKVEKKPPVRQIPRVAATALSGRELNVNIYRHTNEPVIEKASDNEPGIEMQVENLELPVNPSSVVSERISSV

Data set [3] has as its target T4, 5-HT1D receptor.
T4 construct: rows headed: efficacy compared to 5-HT; other: forskolin-stimulated adenylyl cyclase, guinea-pig substantia nigra
The note with it: forskolin-stimulated adenylyl cyclase, guinea-pig substantia nigra.

Data set [4] deals with 5-HT1D receptor. To be noted: K+-evoked [3H]-5-HT release, guinea-pig frontal cortex slices.
The next data set has as its target T5, AT1 receptor (Homo sapiens, UniProt P30556).
T5 sequence (P30556 1-359): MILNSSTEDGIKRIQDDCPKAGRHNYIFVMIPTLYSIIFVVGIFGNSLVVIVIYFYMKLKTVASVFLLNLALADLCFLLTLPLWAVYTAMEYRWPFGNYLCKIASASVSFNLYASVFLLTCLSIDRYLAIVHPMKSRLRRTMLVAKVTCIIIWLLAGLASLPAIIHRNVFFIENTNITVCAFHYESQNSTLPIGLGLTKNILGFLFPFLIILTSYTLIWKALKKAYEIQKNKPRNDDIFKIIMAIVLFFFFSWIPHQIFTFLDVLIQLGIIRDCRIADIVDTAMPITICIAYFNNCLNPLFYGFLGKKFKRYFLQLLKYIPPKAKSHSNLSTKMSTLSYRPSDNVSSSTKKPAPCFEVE

For the next data set, the system named is neuropeptide release. The note with it: trigeminal ganglion stimulation in cats.
For the next data set, the target named is T6, 5-HT1 receptor (Cricetulus griseus, UniProt P46636).
T6 construct: These CHO cells are screened for endogenous G protein-coupled receptors; endogenous in cells; host or cells: CHO cells with a cAMP-responsive luciferase reporter
T6 sequence (P46636 whole entry): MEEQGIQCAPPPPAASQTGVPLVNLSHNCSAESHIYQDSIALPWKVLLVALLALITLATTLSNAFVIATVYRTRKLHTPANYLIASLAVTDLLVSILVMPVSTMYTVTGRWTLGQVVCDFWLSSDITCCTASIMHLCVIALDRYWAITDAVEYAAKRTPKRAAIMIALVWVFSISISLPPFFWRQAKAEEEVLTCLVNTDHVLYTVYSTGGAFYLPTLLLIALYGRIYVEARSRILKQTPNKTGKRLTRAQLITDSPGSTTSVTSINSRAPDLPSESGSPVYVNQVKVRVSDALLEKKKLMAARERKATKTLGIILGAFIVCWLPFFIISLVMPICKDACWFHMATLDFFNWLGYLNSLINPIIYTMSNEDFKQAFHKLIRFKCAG
The note with it: luciferase expression, CHO cells.

In the next data set the target is T7, AT2 receptor (Homo sapiens, UniProt P50052).
T7 sequence (P50052 1-363): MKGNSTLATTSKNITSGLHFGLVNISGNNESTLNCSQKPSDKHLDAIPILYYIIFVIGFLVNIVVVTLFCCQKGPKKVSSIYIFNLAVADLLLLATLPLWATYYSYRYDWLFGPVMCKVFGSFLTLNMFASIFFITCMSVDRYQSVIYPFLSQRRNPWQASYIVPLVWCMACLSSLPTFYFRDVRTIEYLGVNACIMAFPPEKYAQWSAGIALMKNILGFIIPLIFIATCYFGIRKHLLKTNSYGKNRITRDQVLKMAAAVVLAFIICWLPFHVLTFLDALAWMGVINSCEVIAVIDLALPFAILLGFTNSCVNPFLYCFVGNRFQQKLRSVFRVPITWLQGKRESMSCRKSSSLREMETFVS

Data set [5] has as its system angiotensin II receptor sites. The note with it: rat adrenal cortical membranes and cultured rat smooth muscle cells.
In another data set the test system is human coronary artery. To be noted: for effectiveness in causing contraction of human isolated coronary artery: endothelium-denuded segments, in vitro.

Where a name gives a salt, the structure may show the parent alone. Read-outs that look alike come from different tables or passages of the source.

Chain of 5-HT1B binding site (P28564 whole entry): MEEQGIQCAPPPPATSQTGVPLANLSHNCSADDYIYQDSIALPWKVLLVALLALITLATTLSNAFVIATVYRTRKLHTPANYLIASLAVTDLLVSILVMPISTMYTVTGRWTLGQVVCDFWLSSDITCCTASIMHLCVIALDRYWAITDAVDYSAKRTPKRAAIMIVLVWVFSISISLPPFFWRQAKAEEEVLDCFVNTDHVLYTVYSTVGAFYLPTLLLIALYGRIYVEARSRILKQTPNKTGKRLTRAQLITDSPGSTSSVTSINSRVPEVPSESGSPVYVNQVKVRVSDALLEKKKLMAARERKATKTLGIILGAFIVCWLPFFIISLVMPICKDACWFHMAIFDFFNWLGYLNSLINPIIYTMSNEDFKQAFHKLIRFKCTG
Chain of 5-HT2 binding site (P28223 whole entry): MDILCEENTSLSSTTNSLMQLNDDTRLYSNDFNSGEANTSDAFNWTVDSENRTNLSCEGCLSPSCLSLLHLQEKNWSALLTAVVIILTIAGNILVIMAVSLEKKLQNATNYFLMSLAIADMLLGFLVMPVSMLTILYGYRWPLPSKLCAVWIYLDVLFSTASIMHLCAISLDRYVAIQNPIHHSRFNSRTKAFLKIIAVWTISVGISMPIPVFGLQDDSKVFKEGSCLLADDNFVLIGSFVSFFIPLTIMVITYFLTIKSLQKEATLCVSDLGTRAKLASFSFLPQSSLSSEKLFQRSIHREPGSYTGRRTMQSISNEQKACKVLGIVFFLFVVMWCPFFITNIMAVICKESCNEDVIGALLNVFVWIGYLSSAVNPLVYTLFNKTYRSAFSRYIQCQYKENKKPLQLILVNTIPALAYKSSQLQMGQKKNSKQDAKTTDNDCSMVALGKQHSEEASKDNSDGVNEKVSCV
Chain of 5-HT1E binding site (P28566 whole entry): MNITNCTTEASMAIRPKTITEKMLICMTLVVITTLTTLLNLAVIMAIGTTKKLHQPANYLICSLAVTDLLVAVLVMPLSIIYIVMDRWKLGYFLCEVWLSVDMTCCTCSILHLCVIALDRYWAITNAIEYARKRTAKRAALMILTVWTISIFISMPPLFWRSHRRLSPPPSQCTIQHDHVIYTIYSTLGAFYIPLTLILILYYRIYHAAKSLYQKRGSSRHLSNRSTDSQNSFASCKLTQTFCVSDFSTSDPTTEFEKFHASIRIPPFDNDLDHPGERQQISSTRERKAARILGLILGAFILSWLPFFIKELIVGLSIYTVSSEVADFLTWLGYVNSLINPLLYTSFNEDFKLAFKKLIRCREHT

For the compound `NCCc1c[nH]c2ccc(C(N)=O)cc12` [Example 5-CT, 5-carboxamidotryptamine], on 5-HT1D receptor [1], the “potency (pD2 range)” value is 7.2-7.6.

Turning to `NCCc1c[nH]c2ccc(O)cc12` [Example 5-HT], the receptor reserve at 5-HT1F receptors (5-HT-induced inhibition of FSCA) was 90%. Further, the “receptor occupancy required for half-maximal response” value on 5-HT1F receptors (NIH-3T3 cells) is “about 10%”. Besides, the “potency (pD2 range)” value on 5-HT1D receptor [1] was 6.2-7.1.

As for `CC(Cc1ccc(O)cc1)NCC(O)c1cc(O)cc(O)c1` (centres unmarked) [Fenoterol], on β2-adrenergic receptor, the duration of action is 2 to 3 h and the “onset of action (in words)” value is listed as “rapid onset”.

In the case of `CC(C)[N+]1(C)[C@@H]2CC[C@H]1C[C@@H](OC(=O)C(CO)c1ccccc1)C2` (some centres unmarked) [Ipratropium], in data set [2] (after inhalation), the “persistence of significant effects” value is listed as “more than 4 hours” and the “time over which maximal responses develop” value was 30 to 90 min. For the same compound, the “duration of useful response” value in data set [2] (some asthmatic patients) is listed as “up to 6 hours”.

As to `CS(=O)(=O)Nc1ccc(Cc2noc(-c3ccc4[nH]cc(CCN)c4c3)n2)cc1` [L-694,247], the “affinity (pIC50)” value is on record as 10.03 at 5-HT1D binding site and 9.08 at 5-HT1B binding site. Further, the pIC50 at 5-HT1A binding site is 8.64; at 5-HT1C binding site, 6.42; on 5-HT2 binding site, 6.50; at 5-HT1E binding site, 5.66. Also, the pEC50 on 5-HT1D receptor [3] was 9.1; on 5-HT1D receptor [4], 9.4.

For `CC(C)NCC(O)c1cc(O)cc(O)c1` (centres unmarked) [Metaproterenol], on β2-adrenergic receptor, the “onset of action (in words)” value was “within minutes” and the “duration of effect after inhalation” value is on record as “several hours”. Further, the “duration of effects after oral administration” value on β2-adrenergic receptor (oral) was 3 to 4 h.

As for `Cc1cc(Cn2cnc3c2CC(C(=O)O)N(C(=O)C(c2ccccc2)c2ccccc2)C3)ccc1N` (centres unmarked) [PD 123177], at AT1 receptor (AT1 receptor), the affinity entry is on record as “low affinity”.

Turning to `CCC(NC(C)C)C(O)c1ccc(O)c2[nH]c(=O)ccc12` (centres unmarked) [Procaterol], at β2-adrenergic receptor, the duration of action entry was “about 5 hours” and the “onset of action (in words)” value is “rapid onset of action”.

For `CN(C)CCc1c[nH]c2ccc(C[C@H]3COC(=O)N3)cc12` [Zolmitriptan], the neuropeptide release entry with neuropeptide release was “reduces neuropeptide release”.

In the case of `c1ccc2c(c1)CC[C@H](CNCCCNC1=NCCCN1)O2` [alniditan, (−)—(R)-N-[3,4-dihydro-2H-1-benzopyran-2-ylmethyl-N′-(1,4,5,6-tetrahydro-2-pyrimidinyl)-1,3-propanediaminedihydrochloride], the “potency compared with sumatriptan” value with 5-HT1-like receptor (anesthetized dogs) was “higher”. The “common carotid arterial blood flow” value in the data set with 5-HT1-like receptor (anesthetized dogs, 0.63-80 μg/kg i.v.) is “reduces common carotid arterial blood flow”. Also, the “effect on other cardiovascular variables” value with 5-HT1-like receptor (coronary, mesenteric and renal arterial blood flow, vascular and airway resistance) is given as “comparatively little effect”.

For the compound `Cc1ccc(C(=O)Oc2ccc(C(O)CNC(C)(C)C)cc2OC(=O)c2ccc(C)cc2)cc1` (centres unmarked) [bitolterol], the “duration of effect after inhalation” value on β2-adrenergic receptor is 3 to 6 h.

Regarding `CC(C)(C)NCC(O)COc1cccc2[nH]c(C#N)cc12` (centres unmarked) [cyanopindolol], the “reversal of the response to 5-HT” value at 5-HT1 receptor was “reversed”.

For the compound `O=C(c1ccc(F)cc1)C1CCN(CCn2c(=O)[nH]c3ccccc3c2=O)CC1` [ketanserin], the “reversal of the response to 5-HT” value at 5-HT1 receptor is “not”.

For the compound `CCCCc1nc(Cl)c(CO)n1Cc1ccc(-c2ccccc2-c2nn[nH]n2)cc1` [losartan], the affinity result at AT2 receptor is “low affinity”. In addition, the “inhibition of specific binding of 125I-angiotensin II” value in data set [5] is reported as “inhibits the specific binding”.

In the case of `CC(C)NCC(O)COc1cccc2[nH]ccc12` (centres unmarked) [pindolol], the “reversal of the response to 5-HT” value at 5-HT1 receptor is reported as “reversed”.

Turning to `CN(C)CCc1c[nH]c2ccc(Cn3cncn3)cc12` [rizatriptan], the maximum contractile response result in the data set with human coronary artery (compared with sumatriptan) is “lower maximum contractile response”. The results for the “effectiveness in causing contraction of human isolated coronary artery” value in the data set with human coronary artery, in the data set on human coronary artery (listed as MK462) and in the data set with human coronary artery (listed as MK-462) were “less effective than sumatriptan”, “significantly less efficacious than 5-HT” and “significantly less effective than sumatriptan”, respectively.

`CNS(=O)(=O)Cc1ccc2[nH]cc(CCN(C)C)c2c1` [sumatriptan]: the “affinity (pIC50)” value at 5-HT1D binding site was 8.22. For the same compound, the “efficacy, maximal contractile response (Emax)” value in the data set on 5-HT1D receptor [1] (compared to 5-HT and 5-CT) is given as “significantly greater”. Further, the “effectiveness in causing contraction of human isolated coronary artery” value in the data set on human coronary artery is reported as “significantly less efficacious than 5-HT”.

Take angiotensin II: on AT1 receptor (AT1 vs AT2), the “selectivity for the AT subtypes” value is reported as “no selectivity”.

What is called pIC50 is the negative decadic logarithm of the IC50, by convention in mol/L. What is called pEC50 is −log10 of the EC50, conventionally taken in molar units.
